US20230382948A1, “DELIVERY OF ENDOTHELIAL CELL-LADEN MICROGEL ELICITS ANGIOGENESIS IN SELF-ASSEMBLING ULTRASHORT PEPTIDE HYDROGELS” (KING ABDULLAH UNIVERSITY OF SCIENCE AND TECHNOLOGY, priority 2020, published 2023)

How the values were obtained:
HUVECs = test: 3D SUP hydrogel bead assay coculture (angiogenesis in vitro assay); assay type: cell-based, human; conditions: for Endothelial network formation in bulky hydrogel: after 20 days of coculture, HUVEC-laden microgels, HDFn-loaded bulky hydrogel
Protocol: This assay was done by iterating the 4 combinations between SUP bulk-hydrogels ((3) and SUP microgels (p) (i.e., β-IVFK (SEQ ID NO. 1)+μ-IVFK (SEQ ID NO. 1); β-IVFK (SEQ ID NO. 1)+μ-IVZK (SEQ ID NO. 2); βIVZK (SEQ ID NO. 2)+μ-IVFK (SEQ ID NO. 1); β-IVZK (SEQ ID NO. 2)+μ-IVZK (SEQ ID NO. 2)). The next procedure is the same for all combinations using as an example β-IVFK (SEQ ID NO. 1)+μ-IVFK (SEQ ID NO. 1). HUVECs were cultured on μ-IVFK (SEQ ID NO. 1) for 24 h as described previously. By the bead assay seeding day, IVFK (SEQ ID NO. 1) powder for β-hydrogel was dissolved at 8 mg/mL in sterile water 1 h before seeding. Meanwhile, HDFn cells were harvested and resuspended in 2 xPBS at 1.2×10^6 HDFn cells/mL, and simultaneously, HUVEC laden μ-IVFK (SEQ ID NO. 1) were spun down in a tube at 50 g for 5 min. The supernatant was discarded, and 200 μL of HUVEC-ladenμ-IVFK (SEQ ID NO. 1) was mixed with 200 μL of HDFn cells in 2×PBS. Immediately, 100 μL of IVFK (SEQ ID NO. 1) solution at 8 mg/mL was poured on the culture dish and mixed with 100 μL of HUVEC-laden μ-IVFK (SEQ ID NO. 1) with HDFn cells in 2×PBS. The 3D hydrogel bead assay coculture was incubated at 37° C. for 10 min to guarantee β-IVFK (SEQ ID NO. 1) gelation. The final concentration of β-IVFK (SEQ ID NO. 1) was 4 mg/mL. Afterward, 2 mL of EGM-2 (EBM supplemented with singleQuots) was added to each dish containing the 3D hydrogel bead assay coculture, and the medium was changed every other day until fixation for immunofluorescence on culture day 8 and day 21.
The medium was removed from the 3D SUP hydrogel bead assay coculture samples and incubated with PBS at 37° C. for 15 min. Samples were fixed with 4% formaldehyde (v/v) in PBS for 30 min at 22° C. and washed with PBS for 15 min at 22° C. under rocking. Later, samples were detached from the bottom of the plate using a bent spatula and transferred to individual wells in a 24-well plate where they were permeabilized with 0.5 mL per well of (v/v) Triton® X-100 in PBS for 1 h at 22° C. under rocking. After, samples were blocked overnight at 4° C. in a wet chamber under rocking with 0.5 mL per well of 10% (v/v) goat serum in PBS containing 0.01% (v/v) Triton® X-100. From the next step and on, samples were protected from light all of the time. Samples were incubated for 36 h at 4° C. in a wet chamber under rocking with anti-CD31 Alexa® Fluor 647 and anti-Vimentin Alexa® Fluor 488, both diluted 1/100 in blocking buffer. Samples were washed with PBS for […] at 22° C. with shaking, replacing the PBS every hour. Then, cell nuclei were stained with 0.1 μg/mL DAPI in PBS for 5 min at 22° C. and washed three times with PBS for 5 min Finally, samples were transferred to 27 mm glass bottom dishes and imaged with a CLSM Zeiss® 710 or 880. Imaging of the entire sample was done by whole mount Z-stack tile scanning, and zoom-in images were Z-stack imaging with orthogonal views. Maximum intensity projections of the whole mount and zoom-in are presented.

pH of peptide solutions = assay type: physicochemical; conditions: for pH of the peptide solution: 5 mg/mL in Milli-Q water; for pH of the peptide solution after the addition of PBS: 5 mg/mL
Protocol: The preweighed (as per the required final concentration) peptide powder was dissolved in 0.9 mL of Milli-Q® water in a glass vial. The solution was vortexed for 5-10 s to obtain a clear and homogeneous solution. To this peptide solution, 0.1 mL of PBS buffer (10×, w/o Ca^2+ and Mg^2+) was added. To ensure a homogeneous distribution of buffer in the solution, the glass vial was further vortexed for 2-3 s. The glass vial was kept undisturbed on the bench, and hydrogel formation was observed using the vial inversion method, as shown in FIG. 9. The pH of the solutions of IVFK (SEQ ID NO. 1) and IVZK (SEQ ID NO. 2) was 5.57 and 5.48 at a 5 mg/mL concentration, respectively. After the addition of PBS, the pH changed to 7.7 and 7.6 for IVFK (SEQ ID NO. 1) and IVZK (SEQ ID NO. 2), respectively. The pH of the Milli-Q® water and phosphate buffer used was 6.7 and 7.4, respectively.

## Ac-Ile-Val-Cha-Lys-NH2 (IVXK; HELM PEPTIDE1{[ac].I.V.[Cha].K.[am]}$$$$V2.0; SMILES CC[C@H](C)[C@H](NC(C)=O)C(=O)N[C@H](C(=O)N[C@@H](CC1CCCCC1)C(=O)N[C@@H](CCCCN)C(N)=O)C(C)C) [IVZK, self-assembling ultrashort tetrapeptide, Z = cyclohexylalanine, forms hydrogels and microgels]
HUVECs
  Endothelial network formation in bulky hydrogel: developed an evident endothelial network
HUVECs; soft bulk hydrogel 4 mg/mL, after 8 days in culture
  Endothelial sprouting: show initial signs of sprouting
pH of peptide solutions
  pH of the peptide solution: 5.48
  pH of the peptide solution after the addition of PBS: 7.6

## Ac-Ile-Val-Phe-Lys-NH2 (Ac-IVFK-NH2) [self-assembling ultrashort tetrapeptide, forms hydrogels and microgels]
HUVECs; IVFK versus IVZK bulky hydrogel, 20 days of coculture
  Endothelial network, comparison of bulky hydrogels: more extended and complex
HUVECs; IVFK versus IVZK bulky hydrogels
  Lumen (branched hollow structures), comparison of bulky hydrogels: more visible and also larger
HUVECs
  Endothelial network formation in bulky hydrogel: developed an evident endothelial network
pH of peptide solutions
  pH of the peptide solution: 5.57
  pH of the peptide solution after the addition of PBS: 7.7
